For experiment [1], the system named is New Zealand Rabbit platelet rich plasma. In words: TP receptor platelet aggregation, rabbit (U-46619-induced). The format is cell-based. As for the experimental part: (§1) Thrombosis Research 33:277-288.
TP Receptor Platelet Aggregation—Rabbit:
New Zealand Rabbit (2.75±0.25 kg) platelet rich plasma
Assay: Inhibition of 1.5 μM U-46619-induced platelet aggregation Incubation Time, Temp: 5 minutes at 37° C. Incubation Buffer Trisodium Citrate (0.13 M)-treated platelet rich plasma
(§2) Time of Assessment: 5 minutes
(§3) Quantification Method Optical Density Change

For experiment [2], the target named is T1, Thromboxane receptor (TP) (Homo sapiens, UniProt P21731).
T1 construct: expressed in transfected cells; host or cells: HEK-293
T1 sequence (P21731 1-343): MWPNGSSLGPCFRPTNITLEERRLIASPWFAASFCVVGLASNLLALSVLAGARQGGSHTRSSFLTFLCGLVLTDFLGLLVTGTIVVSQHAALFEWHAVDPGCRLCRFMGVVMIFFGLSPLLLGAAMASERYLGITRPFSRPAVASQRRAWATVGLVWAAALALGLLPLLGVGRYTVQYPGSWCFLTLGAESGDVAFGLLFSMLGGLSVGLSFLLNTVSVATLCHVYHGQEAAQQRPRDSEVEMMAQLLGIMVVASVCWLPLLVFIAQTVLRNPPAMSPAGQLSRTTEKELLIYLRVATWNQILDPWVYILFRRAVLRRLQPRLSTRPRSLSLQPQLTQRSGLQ
Kind of experiment: TP receptor radioligand binding ([3H] SQ-29548). The following applies: Human recombinant HEK-293 cells. As for the experimental part: The compounds were tested on radioligand binding assays for thromboxane receptor binding essentially as described by Hedberg et al. (1988) J. Pharmacol. Exp. Ther. 245:786-792 and Saussy et al. (1986) J. Biol. Chem. 261: 3025-3029 according to the following:
TP Receptor Radioligand Binding Studies:
Human recombinant HEK-293 cells,
Incubation Time, Temp: 30 minutes at 25° C.
Incubation Buffer: 50 mM Tris-HCl, pH 7.4, 154 mM NaCl
Non-Specific Ligand: 1 μM SQ-29548
The data were transformed to semi-log and then analysed using non-linear regression to a four-parameter dose-response curve Y=Bottom+(Top−Bottom)/(1+10̂((LogEC50−X)*HillSlope)) using the log(agonist) vs. response—Variable slope function of GraphPad Prism software (http://graphpad.com/help/prism5/prism5help.html?usitignonlinear_regression_step_by_s.htm).

The target in the next experiment is T2, Thromboxane synthase (Homo sapiens, UniProt P24557).
T2 construct: Human Platelet Thromboxane Synthase Assay; from tissue; host or cells: human platelets
T2 sequence (P24557 1-533): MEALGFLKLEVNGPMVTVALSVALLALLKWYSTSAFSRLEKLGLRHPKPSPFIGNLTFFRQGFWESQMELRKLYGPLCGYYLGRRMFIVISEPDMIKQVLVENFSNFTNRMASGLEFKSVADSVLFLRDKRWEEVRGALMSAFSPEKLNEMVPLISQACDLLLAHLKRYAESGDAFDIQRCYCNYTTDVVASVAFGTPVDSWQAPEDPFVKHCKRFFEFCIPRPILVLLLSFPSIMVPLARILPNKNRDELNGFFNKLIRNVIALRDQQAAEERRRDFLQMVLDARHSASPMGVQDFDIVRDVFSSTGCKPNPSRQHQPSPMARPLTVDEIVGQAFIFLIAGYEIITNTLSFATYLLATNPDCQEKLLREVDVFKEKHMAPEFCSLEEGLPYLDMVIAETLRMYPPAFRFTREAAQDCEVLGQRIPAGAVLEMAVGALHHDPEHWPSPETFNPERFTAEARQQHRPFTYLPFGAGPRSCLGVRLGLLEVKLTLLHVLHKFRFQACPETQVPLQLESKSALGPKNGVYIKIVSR
Kind of experiment: Human platelet thromboxane synthase assay. The format is biochemical. As for the experimental part: The compounds were tested for thromboxane synthase inhibition essentially as described by Borsch-Haubold A G, Pasquet S, Watson S P. (1998) Direct inhibition of cyclooxygenase-1 and -2 by the kinase inhibitors SB 203580 and PD 98059. […] 1. Imidazole derivatives. J Med. Chem. (10):1139-48 according to the following:
Pre-incubation time, temp: 15 minutes at 25° C. Incubation time, temp: 3 minutes at 25° C.
Incubation Buffer: 10 mM Tris-HCl, pH 7.4
Quantification Method: EIA quantification of TxB2

For experiment [3], the system named is arterial thrombosis in a mouse model. Kind of experiment: Arterial thrombosis mouse model (FeCl3 on femoral artery). The format is in vivo. The following applies: dose not given. How it is done:
The solutions are diluted 3.3-fold in saline and 100 μl/25 g is injected. Thus, the above-mentioned doses of 100 and 300 mg/kg of compound correspond to final doses of 30 and 100 mg/kg.
During the experiments, a soluble salt of the drug is provided (potassium salt of compound C), diluted in saline. Of this formulation, 100 μl/25 g is injected i.v. in the tail vein (dose of 100 mg/kg).
Solutions are injected (100 μl/25 g body weight) i.v. in the tail vein over 2 min to obtain doses of each compound of 30 mg/kg and 100 mg/kg. Aspirin is given the same way at a dose of 200 mg/kg. Clopidogrel is administered by oral gavage at a dose of 20 mg/kg at 6-7 hours prior to the experiment. The animals assigned to each group are matched for body weight. Mice are typically 8-10 weeks old males and are in a 100% Swiss genetic background.
The flow in each image is expressed as a percentage of that at the contralateral side, and data are averaged for all 120 images to determine total flow. The same analysis is performed for 10 min intervals (which gives essentially the same information as the area under the curve). […] Flow before treatment is recorded as 100%, and that in occluded arteries as 0%. At the end of the experiment, blood is collected on 0.01M citrate by heart puncture for determination of blood cell counts. Plasma is prepared by centrifugation and stored at −20° C. for determination of drug levels.
Statistical analysis for differences between two groups is performed by non-parametric Student t-test. Occlusion times >30 min were considered equal to 30 min for statistical analysis. Significance is set at p<0.05.

For experiment [4], the target named is T3, Human Recombinant (E. coli) PPARgamma (Homo sapiens, UniProt P37231).
T3 construct: host or cells: E. coli
T3 sequence (P37231 1-505): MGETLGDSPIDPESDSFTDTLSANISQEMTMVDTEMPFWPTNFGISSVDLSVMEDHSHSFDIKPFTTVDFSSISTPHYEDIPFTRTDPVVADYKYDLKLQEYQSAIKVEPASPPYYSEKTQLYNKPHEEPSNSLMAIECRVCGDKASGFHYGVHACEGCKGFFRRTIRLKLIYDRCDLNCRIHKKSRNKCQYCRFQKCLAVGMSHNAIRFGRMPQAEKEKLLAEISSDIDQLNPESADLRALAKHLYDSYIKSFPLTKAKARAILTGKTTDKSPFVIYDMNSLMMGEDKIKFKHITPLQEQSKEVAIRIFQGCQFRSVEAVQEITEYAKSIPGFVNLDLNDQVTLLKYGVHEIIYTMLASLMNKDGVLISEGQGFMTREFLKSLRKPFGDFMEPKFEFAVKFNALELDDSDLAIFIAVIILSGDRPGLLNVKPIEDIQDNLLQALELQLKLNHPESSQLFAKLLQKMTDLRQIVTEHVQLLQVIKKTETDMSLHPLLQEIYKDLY
In words: PPAR gamma binding assay ([3H]-rosiglitazone). The following applies: for pKi / pIC50: [3H]-rosiglitazone 10 nM; for pKi: Cheng Prusoff, read-out: PPARγ binding Ki; for pIC50: read-out: PPARγ binding IC50. How it is done: Incubation: 120 min. at 4° C.
The results are expressed as a percent of control specific binding ((measured specific binding/control specific binding)×100) obtained in the presence of the test compounds. The IC50 values (concentration causing a half-maximal inhibition of control specific binding) and Hill coefficients (nil) were determined by non-linear regression analysis of the competition curves generated with mean replicate values using Hill equation curve fitting (Y=D+[(A−D)/(1+(C/C50)nH)], where Y=specific binding, D=minimum specific binding, A=maximum specific binding, C=compound concentration, C50=IC50, and nH=slope factor). This analysis was performed using a software developed at Cerep (Hill software) and validated by comparison with data generated by the commercial software SigmaPlot® 4.0 for Windows® (© 1997 by SPSS Inc.). The inhibition constants (Ki) were calculated using the Cheng Prusoff equation (Ki=IC50/(1+(L/KD)), where L=concentration of radioligand in the assay, and KD=affinity of the radioligand for the receptor).

Experiment [5] deals with Human platelet rich plasma. In words: TP receptor platelet aggregation, human (U-46619-induced). The format is cell-based. The following applies: 3 μM U-46619-induced. As for the experimental part:
as §1
TP Receptor Platelet Aggregation—Human:
Human (60±10 kg) platelet rich plasma
Assay. Inhibition of 3 μM U-46619-induced platelet aggregation Incubation Time, Temp: 5 minutes at 37° C. Incubation Buffer Trisodium Citrate (0.13 M)-treated fresh platelet rich plasma
as §2, §3

Molecules are shown by their SMILES. pIC50, pKi: −log10 of the molar value.

Take `COc1ccc(Oc2ccccc2C2OC[C@@H](C/C=C\CCC(=O)O)[C@@H](c3ccccc3O)O2)cc1` (stereo partly drawn) [Compound 1]: the inhibition – broadly, the change of the read-out against control, counted positive when it falls – at 30 µM in experiment [1] (Oryctolagus cuniculus, Platelet, 30 μM, 1.5 μM U-46619-induced) came out at 96%. In addition, the “Inhibition of platelet aggregation (in words)” value in experiment [1] (Table 2) is reported as “potent inhibitors of platelet aggregation”. Besides, the inhibition at 10 µM in experiment [2] is 101%. In addition, the negative logarithm of the IC50 (pIC50) – broadly, the IC50 on a negative log10 scale, so that one unit is a factor of ten – in experiment [2] (5 nM [3H] SQ-29548) was 8.90; on Thromboxane synthase it was 6.45; in experiment [4] it was 5.64. Also, the negative-log Ki (pKi) (commonly the Ki on a negative log10 scale, so that one unit is a factor of ten) in experiment [2] (5 nM [3H] SQ-29548) is 9.09; in experiment [4], 6.10. The inhibition at 5 µM against Thromboxane synthase (5 μM) came out at 71%. Besides, on Thromboxane synthase (Table 2), the “Inhibition of thromboxane synthase (in words)” value is “inhibitors of thromboxane synthase”. Besides, in experiment [3], the Occlusion time result was “prolongs the occlusion time”. Moreover, the Total blood flow result in experiment [3] is on record as “improves total blood flow”. Further, in experiment [4] (summary of Table 3), the “PPARgamma binding compared with Compound A (in words)” value was “at least as well as Compound A”.
`O=C(O)CC/C=C\C[C@H]1CO[C@@H](c2ccccc2Cl)O[C@H]1c1ccccc1O` [Compound B, (Z)-6-((2R,4R,5S)-2-(2-chlorophenyl)-4-(2-hydroxyphenyl)-1,3-dioxan-5-yl)hex-4-enoic acid]: in experiment [5] (30 μM), the inhibition at 30 µM is 13%. In addition, the inhibition at 100 µM in experiment [1] (Oryctolagus cuniculus, Platelet, 0.1 mM, 1.5 μM U-46619-induced) was 15%. Besides, at Thromboxane synthase (10 μM), the “Thromboxane synthase Human platelet Inhibition (%)” value is 28% and the inhibition at 10 µM is 25%. Further, the “PPARγ binding (in words)” value in experiment [4] (at 30 μM) was “no binding”.
Turning to `O=C(O)CC/C=C\CC1COC(c2ccccc2Cl)OC1c1ccccc1O` (racemic) [Compound A, (Z)-6-(-2-(2-chlorophenyl)-4-(2-hydroxyphenyl)-1,3-dioxan-5-yl)hex-4-enoic acid], the pIC50 in experiment [5] was 5.82; at Thromboxane synthase, 4.50; in experiment [4], 4.89. Besides, the inhibition at 10 µM in experiment [2] turned out to be 105%; at Thromboxane synthase (10 μM), 16%. In addition, in experiment [4], the negative-log Ki (pKi) is 5.32.

The values above are taken from patent US20120142766A1, “SUBSTITUTED 1,3-DIOXANES AND THEIR USES” (EVOLVA SA, priority 2007, published 2012).
